Measured values as given in paper PMC11288027, “Exploring novel microbial metabolites and drugs for inhibiting Clostridioides difficile” (mSphere, 2024).
Where a name gives a salt, the structure may show the parent alone. Read-outs that look alike come from different tables or passages of the source.

What was measured:
[1] = test system: C. difficile clinical isolates; experiment: MIC against a panel of 20 C. difficile clinical isolates (broth microdilution); assay type: cell-based, Clostridioides difficile; details: Clostridioides difficile
B. fragilis = experiment: MIC against human gut microbiota; assay type: cell-based, Bacteroides fragilis
B. dorei = experiment: MIC against human gut microbiota; assay type: cell-based, Bacteroides dorei; details: Phocaeicola dorei, read-out: minimum inhibitory concentration (MIC)
Bif. breve = experiment: MIC against human gut microbiota; assay type: cell-based, Bifidobacterium breve; details: Bifidobacterium breve, ATCC15700, read-out: minimum inhibitory concentration (MIC)
Bif. angulatum = experiment: MIC against human gut microbiota; assay type: cell-based, Bifidobacterium angulatum; details: Bifidobacterium angulatum, read-out: minimum inhibitory concentration (MIC)
Bif. adolescentis = experiment: MIC against human gut microbiota; assay type: cell-based, Bifidobacterium adolescentis; details: Bifidobacterium adolescentis, read-out: minimum inhibitory concentration (MIC)
Bif. longum = experiment: MIC against human gut microbiota; assay type: cell-based, Bifidobacterium longum; details: Bifidobacterium longum
E. faecium = experiment: MIC against human gut microbiota; assay type: cell-based, Enterococcus faecium; details: Enterococcus faecium, read-out: minimum inhibitory concentration (MIC)
E. fecalis = experiment: MIC against human gut microbiota; assay type: cell-based, Enterococcus faecalis; details: Enterococcus faecalis, read-out: minimum inhibitory concentration (MIC)
L. casei = experiment: MIC against human gut microbiota; assay type: cell-based; details: Lacticaseibacillus casei, ATCC334, read-out: minimum inhibitory concentration (MIC)
L. brevis = experiment: MIC against human gut microbiota; assay type: cell-based, Lactobacillus brevis; details: Levilactobacillus brevis, ATCC14864, read-out: minimum inhibitory concentration (MIC)
L. rhamanosus = experiment: MIC against human gut microbiota; assay type: cell-based, Lactobacillus rhamnoosus; details: Lactobacillus, ATCC53103, read-out: minimum inhibitory concentration (MIC)
[2] = test system: embryo development in mice; parameters: method as in PMID 19079959; details: cited from earlier work
[3] = test system: C. difficile ATCC BAA-1870; experiment: Time-kill assay at 5 × MIC; details: C. difficile ATCC BAA-1870, ~10^6 CFU/mL, up to 24 h
[4] = test system: C. difficile ATCC BAA-1870; experiment: MIC of active hits by broth microdilution; details: C. difficile ATCC BAA-1870, 48 h anaerobic

With `C[C@H](CCC(=O)O)C[C@H](C)C[C@H](C)C(=O)/C=C(\O)[C@H](C)C[C@H](C)C/C=C/[C@@H](C)[C@@H](O)[C@@H](C)[C@@H](O)C[C@@H]1CC[C@@](C)([C@H]2CC[C@@](C)([C@@H](C)O)O2)O1` [Ionomycin (calcium salt)] the MIC50 [1] was 1 µg/mL, the MIC90 [1] was 2 µg/mL and the MIC50 ([1]; 48 h) was 1 µg/mL. For the same compound, the MIC ([1]; ATCC630, read-out: minimum inhibitory concentration (MIC)) was 0.5 µg/mL, the MIC ([1]; ATCC43255, read-out: minimum inhibitory concentration (MIC)) was 1 µg/mL and the MIC ([1]; ATCCBAA1870, read-out: minimum inhibitory concentration (MIC)) was 1 µg/mL. The “minimum inhibitory concentration (MIC)” value (B. fragilis; B. fragilis HM- 718, BHIS broth, anaerobic) was over 256 µg/mL, the MIC (B. fragilis; Bacteroides fragilis, read-out: minimum inhibitory concentration (MIC)) was over 256 µg/mL and the MIC (B. dorei) was over 256 µg/mL. For the same compound, the MIC (Bif. breve) was over 256 µg/mL, the MIC (Bif. angulatum) was 64 µg/mL and the MIC (Bif. adolescentis) was 16 µg/mL. For the same compound, the MIC (Bif. longum; read-out: minimum inhibitory concentration (MIC), Bif. longum HM- 845, BHIS broth, anaerobic) was over 256 µg/mL, the MIC (Bif. longum; read-out: minimum inhibitory concentration (MIC), Bif. longum HM- 846, BHIS broth, anaerobic) was 64 µg/mL and the MIC (Bif. longum; read-out: minimum inhibitory concentration (MIC), Bif. longum HM- 847, BHIS broth, anaerobic) was 128 µg/mL. It also gave an MIC (Bif. longum; read-out: minimum inhibitory concentration (MIC), Bif. longum HM- 848, BHIS broth, anaerobic) of 256 µg/mL, an MIC (E. faecium) of 32 µg/mL and an MIC (E. fecalis) of 16 µg/mL. The MIC (L. casei) was 32 µg/mL, the MIC (L. brevis) was at least 256 µg/mL and the MIC (L. rhamanosus) was over 256 µg/mL. For the same compound, the “toxicity on embryo development” value [2] was “no toxicity”, the “time to bactericidal effect” value [3] was 8 h and the “time to eliminate / clear C. difficile” value [3] was 12 h. The “MIC (μM)” value [4] was 4 µM and the MIC ([4]; Clostridioides difficile, ATCCBAA1870, 48 h) was 2.99 µg/mL.
